For the data set, the system named is CaPan1 tumor. Briefly: Pre-targeting with bsMAb and radiolabeled peptide-haptens in CaPan1 tumor-bearing mice. To be noted: peptide pre-targeted with bsPAM4, 3-Hours. The method, then:
Mice were sacrificed at 3 and 24 hours after the administration of peptides and the % ID/g determined for the tumor and various tissues.

Where a SMILES comes first, the peptide text is derived from it. Side-chain parts run from the residue outwards. The star is where a group is joined. DTPA = O=C(O)CN(CCN(CC(=O)O)CC(=O)O)CCN(CC(=O)O)CC(=O)*; X1 = NC(=S)NN=CC(=O)*

In the case of `CC(=O)N[C@@H](CCCCNC(=O)CN(CCN(CCN(CC(=O)O)CC(=O)O)CC(=O)O)CC(=O)O)C(=O)N[C@@H](Cc1ccc(O)cc1)C(=O)N[C@@H](CCCCNC(=O)CN(CCN(CCN(CC(=O)O)CC(=O)O)CC(=O)O)CC(=O)O)C(=O)N[C@@H](CCCCNC(=O)[C@H](CS)NC(=O)C=NNC(N)=S)C(N)=O` [^99mTc-IMP192, metal not drawn] (Ac-K(DTPA)YK(DTPA)K([Cys-X1])-NH2; N-terminus and C-terminus assumed), the “Tumor: Non-Tumor Tissue Ratio, Mean” value is 9.93 (Blood); 8.13 (Kidney); 16.66 (Liver); 15.75 (Lung); 73.29 (Pancreas); 14.62 (Spleen). Further, under “Tumor”, the “Tumor: Non-Tumor Tissue Ratio, Mean” value was 1.00.

As to `CC(=O)N[C@@H](Cc1ccccc1)C(=O)N[C@@H](CCCCNC(=O)CN(CCN(CCN(CC(=O)O)CC(=O)O)CC(=O)O)CC(=O)O)C(=O)N[C@@H](Cc1ccc(O)cc1)C(=O)N[C@@H](CCCCNC(=O)CN(CCN(CCN(CC(=O)O)CC(=O)O)CC(=O)O)CC(=O)O)C(N)=O` [^111In-IMP156, metal not drawn] (Ac-FK(DTPA)YK(DTPA)-NH2; N-terminus and C-terminus assumed), the “Tumor: Non-Tumor Tissue Ratio, Mean” value is given as 36.47 (Blood); 123.24 (Bone); 7.79 (Kidney); 36.07 (Liver); 44.55 (Lung); 155.55 (Pancreas). Also, the “Tumor: Non-Tumor Tissue Ratio, Mean” value reads like this: (Spleen) 33.40; (Tumor) 1.00; (W. Bone) 378.00.

Source of the values: US7238786B2, “Monoclonal antibody cPAM4” (Immunomedics, Inc., priority 2002, dated 2007).
